In the test the test system is c-jun mRNA expression in A549 cells. Kind of test: Phorbol ester (TPA) mediated AP-1 gene expression in A549 cells, Northern blotting. The note with it: Homo sapiens, 0.5 h, 100 nM TPA for 30 minutes, no oligo, basal = 100%. Type of test: cell-based. As for the experimental part: The effect of PKC-α reduction on AP-1 transcription factor components was determined. 12-O-tetradecanoylphorbol-13-acetate (TPA) causes a time dependent accumulation of mRNA transcripts of multiple members of AP-1, including c-jun, jun-B and c-fos.
A549 cells were treated with 100 nM ISIS 9606 (SEQ ID NO. 2) or ISIS 13009 (SEQ ID NO. 23) and DOTMA/DOPE as described in Example 13. Cells were then washed and allowed to recover for an additional 68 hours. Cells were then treated with 100 nM TPA for 30 minutes and the expression of either c-fos, jun-B, c-jun or G3PDH mRNA expression was determined by Northern blotting.
Total RNA was extracted from cells and resolved on agarose gels as described in Example 6. These were transferred to nylon membrane (Biorad, Hercules, Calif.) and probed with ^32 P radiolabelled cDNA probes for different PKC isozymes. Additionally, gels were probed with ^32 P radiolabelled cDNA probes for c-fos, c-jun, and junB (American Type Culture Collection, Manassas, Va.). Gels were routinely stripped and reprobed with radiolabelled human […]-3-phosphate dehydrogenase (G3PDH) probe to confirm equal loading. Radioactive bands were quantified using a Phospholmager (Molecular Dynamics, Sunnyvale, Calif.). […] A scrambled control oligonucleotide was without effect on the up-regulation of any AP-1 family member. […]

Structures are written as SMILES.

`CCCCCCCCCCCCCC(=O)O[C@@H]1[C@@H](C)[C@@]2(O)[C@@H](C=C(CO)C[C@]3(O)C(=O)C(C)=C[C@@H]23)[C@@H]2C(C)(C)[C@]12OC(C)=O` [TPA, 12-O-tetradecanoylphorbol-13-acetate]: the activity at 0.1 µM is 353%.
